From ChEMBL document CHEMBL5465560, “Selectivity Literature for EUbOPEN Chemogenomic Library” (2024)
Values belong to the compound of their own block, whether it stands above or below them.

How the values were obtained:
[1] = molecular target: TRAF2 and NCK-interacting protein kinase (Homo sapiens) (UniProt Q9UKE5); experiment: Selectivity interaction (KinomeScan (DiscoverX)) EUB0000666a TNIK; details: at 10 µM
[2] = test system: Receptor-type tyrosine-protein kinase FLT3 (Homo sapiens), P36888 [UNDEFINED MUTATION]; experiment: Selectivity interaction (KinomeScan (DiscoverX)) EUB0000311b FLT3; details: at 1 µM
[3] = molecular target: Cyclin-dependent kinase 18 (Homo sapiens) (UniProt Q07002); details: at 10 µM
[4] = molecular target: T1, Beta-adrenergic receptor kinase 1 (Homo sapiens) (UniProt P25098); experiment: Selectivity interaction (KinomeScan (DiscoverX)) EUB0000695a ADRBK1; details: at 100 nM
T1 sequence (whole entry): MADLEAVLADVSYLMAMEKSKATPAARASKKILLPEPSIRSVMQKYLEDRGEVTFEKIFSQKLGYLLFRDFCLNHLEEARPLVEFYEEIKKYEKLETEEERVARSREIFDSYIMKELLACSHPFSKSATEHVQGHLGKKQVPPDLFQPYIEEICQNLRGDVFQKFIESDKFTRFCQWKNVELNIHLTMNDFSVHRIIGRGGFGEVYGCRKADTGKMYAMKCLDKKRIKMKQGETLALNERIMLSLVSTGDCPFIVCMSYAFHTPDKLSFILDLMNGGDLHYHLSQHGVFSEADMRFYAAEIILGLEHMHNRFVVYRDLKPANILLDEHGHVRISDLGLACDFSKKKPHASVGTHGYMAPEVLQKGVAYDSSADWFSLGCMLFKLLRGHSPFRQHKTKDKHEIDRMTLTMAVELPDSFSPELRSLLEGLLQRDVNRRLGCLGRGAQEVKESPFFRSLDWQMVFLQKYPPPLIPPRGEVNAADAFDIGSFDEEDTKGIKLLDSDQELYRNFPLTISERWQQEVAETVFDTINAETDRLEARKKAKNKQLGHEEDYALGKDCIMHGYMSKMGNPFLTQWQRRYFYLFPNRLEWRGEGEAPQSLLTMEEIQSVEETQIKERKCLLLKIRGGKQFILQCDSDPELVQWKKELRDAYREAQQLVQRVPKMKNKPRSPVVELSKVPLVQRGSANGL

[5] = molecular target: T2, Dual specificity mitogen-activated protein kinase kinase 5 (Homo sapiens) (UniProt Q13163); experiment: Selectivity interaction (KinomeScan (DiscoverX)) EUB0001049a MAP2K5; details: at 1 µM
T2 sequence (whole entry): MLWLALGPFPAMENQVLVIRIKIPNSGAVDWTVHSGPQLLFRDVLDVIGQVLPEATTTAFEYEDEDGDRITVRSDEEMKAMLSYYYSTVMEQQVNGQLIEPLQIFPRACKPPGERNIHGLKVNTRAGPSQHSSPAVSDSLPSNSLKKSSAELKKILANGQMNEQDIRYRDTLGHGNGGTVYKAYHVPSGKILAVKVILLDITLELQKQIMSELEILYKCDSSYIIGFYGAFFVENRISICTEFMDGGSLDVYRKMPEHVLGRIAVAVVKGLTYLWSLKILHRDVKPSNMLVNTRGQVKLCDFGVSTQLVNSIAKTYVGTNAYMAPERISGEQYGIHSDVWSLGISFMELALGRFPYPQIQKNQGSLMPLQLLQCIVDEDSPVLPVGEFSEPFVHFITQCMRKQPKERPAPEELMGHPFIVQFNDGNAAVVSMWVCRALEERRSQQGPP

[6] = molecular target: T3, Phosphatidylinositol 3-kinase C2 domain-containing subunit gamma (Homo sapiens) (UniProt O75747); experiment: Selectivity interaction (KinomeScan (DiscoverX)) EUB0001079a PIK3C2G; details: at 1 µM
T3 sequence (whole entry): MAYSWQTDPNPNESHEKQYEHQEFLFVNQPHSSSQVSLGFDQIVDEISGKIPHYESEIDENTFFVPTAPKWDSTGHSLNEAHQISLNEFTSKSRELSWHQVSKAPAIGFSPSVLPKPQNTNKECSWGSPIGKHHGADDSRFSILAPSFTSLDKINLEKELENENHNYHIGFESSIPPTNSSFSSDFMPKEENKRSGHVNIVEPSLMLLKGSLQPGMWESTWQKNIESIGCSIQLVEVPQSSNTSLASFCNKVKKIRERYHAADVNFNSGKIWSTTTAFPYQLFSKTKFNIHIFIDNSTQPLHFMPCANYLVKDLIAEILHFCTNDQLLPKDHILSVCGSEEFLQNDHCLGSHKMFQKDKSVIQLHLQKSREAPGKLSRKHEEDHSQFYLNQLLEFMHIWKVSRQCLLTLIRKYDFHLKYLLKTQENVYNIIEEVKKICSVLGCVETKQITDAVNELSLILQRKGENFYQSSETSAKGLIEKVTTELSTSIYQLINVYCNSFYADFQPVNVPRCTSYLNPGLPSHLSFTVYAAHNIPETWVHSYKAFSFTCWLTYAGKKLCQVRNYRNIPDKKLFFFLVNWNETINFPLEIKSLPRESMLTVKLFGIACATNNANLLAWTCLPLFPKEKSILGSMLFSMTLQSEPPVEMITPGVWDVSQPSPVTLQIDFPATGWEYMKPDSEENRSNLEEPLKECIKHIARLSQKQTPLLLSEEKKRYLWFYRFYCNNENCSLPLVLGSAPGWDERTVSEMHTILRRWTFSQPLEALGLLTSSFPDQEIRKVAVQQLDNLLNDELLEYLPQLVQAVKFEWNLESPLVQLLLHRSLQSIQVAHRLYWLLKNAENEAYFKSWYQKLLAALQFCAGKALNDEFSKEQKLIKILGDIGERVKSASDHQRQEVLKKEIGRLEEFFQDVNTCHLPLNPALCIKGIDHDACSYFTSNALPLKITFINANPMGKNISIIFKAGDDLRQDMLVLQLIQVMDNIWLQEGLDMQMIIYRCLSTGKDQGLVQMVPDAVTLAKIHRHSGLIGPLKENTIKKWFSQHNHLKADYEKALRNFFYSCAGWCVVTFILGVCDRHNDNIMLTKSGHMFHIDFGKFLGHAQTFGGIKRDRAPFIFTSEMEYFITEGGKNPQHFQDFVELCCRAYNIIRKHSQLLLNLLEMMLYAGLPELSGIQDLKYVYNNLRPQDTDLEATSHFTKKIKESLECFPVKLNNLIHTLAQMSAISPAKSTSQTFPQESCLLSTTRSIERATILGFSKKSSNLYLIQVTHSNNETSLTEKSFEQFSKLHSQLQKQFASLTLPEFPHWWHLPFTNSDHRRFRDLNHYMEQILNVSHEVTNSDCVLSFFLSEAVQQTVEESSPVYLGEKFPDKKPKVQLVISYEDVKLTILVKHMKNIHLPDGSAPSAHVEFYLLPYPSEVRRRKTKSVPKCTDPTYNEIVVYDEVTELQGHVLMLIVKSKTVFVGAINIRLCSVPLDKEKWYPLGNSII

[7] = molecular target: Dual specificity protein kinase CLK2 (Homo sapiens, UniProt P49760); experiment: Selectivity interaction (KinomeScan (DiscoverX)) EUB0000618a CLK2; details: at 10 µM
[8] = molecular target: T2, Dual specificity mitogen-activated protein kinase kinase 5 (Homo sapiens); experiment: Selectivity interaction (KinomeScan (DiscoverX)) EUB0000618a MAP2K5; details: at 10 µM

Chain of Cyclin-dependent kinase 18 (Homo sapiens) (Q07002 whole entry): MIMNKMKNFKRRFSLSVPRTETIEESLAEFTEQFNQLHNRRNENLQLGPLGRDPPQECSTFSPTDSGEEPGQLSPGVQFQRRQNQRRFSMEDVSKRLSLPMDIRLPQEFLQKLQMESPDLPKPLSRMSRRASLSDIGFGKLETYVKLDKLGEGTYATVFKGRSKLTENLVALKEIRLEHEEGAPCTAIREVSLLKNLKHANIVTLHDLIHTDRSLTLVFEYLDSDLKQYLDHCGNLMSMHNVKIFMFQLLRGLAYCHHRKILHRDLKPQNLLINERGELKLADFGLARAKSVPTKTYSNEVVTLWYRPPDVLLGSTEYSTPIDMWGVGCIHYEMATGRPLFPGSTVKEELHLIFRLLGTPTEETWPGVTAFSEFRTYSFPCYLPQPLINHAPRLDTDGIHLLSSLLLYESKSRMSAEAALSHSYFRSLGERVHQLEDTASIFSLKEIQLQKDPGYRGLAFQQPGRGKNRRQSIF
Chain of Dual specificity protein kinase CLK2 (P49760 whole entry, looked up): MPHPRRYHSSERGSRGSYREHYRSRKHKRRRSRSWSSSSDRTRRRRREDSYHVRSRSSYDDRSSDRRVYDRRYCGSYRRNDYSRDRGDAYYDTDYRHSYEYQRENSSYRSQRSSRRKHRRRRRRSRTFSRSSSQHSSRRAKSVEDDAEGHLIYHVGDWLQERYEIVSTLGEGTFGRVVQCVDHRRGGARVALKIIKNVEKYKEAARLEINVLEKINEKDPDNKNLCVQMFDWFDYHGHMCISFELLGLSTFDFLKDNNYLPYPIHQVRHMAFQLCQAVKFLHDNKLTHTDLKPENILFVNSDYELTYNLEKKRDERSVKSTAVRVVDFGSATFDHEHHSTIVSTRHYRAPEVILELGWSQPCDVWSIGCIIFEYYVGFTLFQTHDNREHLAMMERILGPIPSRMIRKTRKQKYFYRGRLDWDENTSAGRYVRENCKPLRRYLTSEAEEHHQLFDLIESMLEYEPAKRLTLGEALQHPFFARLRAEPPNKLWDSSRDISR
Chain of TRAF2 and NCK-interacting protein kinase (Homo sapiens) (Q9UKE5 whole entry, looked up): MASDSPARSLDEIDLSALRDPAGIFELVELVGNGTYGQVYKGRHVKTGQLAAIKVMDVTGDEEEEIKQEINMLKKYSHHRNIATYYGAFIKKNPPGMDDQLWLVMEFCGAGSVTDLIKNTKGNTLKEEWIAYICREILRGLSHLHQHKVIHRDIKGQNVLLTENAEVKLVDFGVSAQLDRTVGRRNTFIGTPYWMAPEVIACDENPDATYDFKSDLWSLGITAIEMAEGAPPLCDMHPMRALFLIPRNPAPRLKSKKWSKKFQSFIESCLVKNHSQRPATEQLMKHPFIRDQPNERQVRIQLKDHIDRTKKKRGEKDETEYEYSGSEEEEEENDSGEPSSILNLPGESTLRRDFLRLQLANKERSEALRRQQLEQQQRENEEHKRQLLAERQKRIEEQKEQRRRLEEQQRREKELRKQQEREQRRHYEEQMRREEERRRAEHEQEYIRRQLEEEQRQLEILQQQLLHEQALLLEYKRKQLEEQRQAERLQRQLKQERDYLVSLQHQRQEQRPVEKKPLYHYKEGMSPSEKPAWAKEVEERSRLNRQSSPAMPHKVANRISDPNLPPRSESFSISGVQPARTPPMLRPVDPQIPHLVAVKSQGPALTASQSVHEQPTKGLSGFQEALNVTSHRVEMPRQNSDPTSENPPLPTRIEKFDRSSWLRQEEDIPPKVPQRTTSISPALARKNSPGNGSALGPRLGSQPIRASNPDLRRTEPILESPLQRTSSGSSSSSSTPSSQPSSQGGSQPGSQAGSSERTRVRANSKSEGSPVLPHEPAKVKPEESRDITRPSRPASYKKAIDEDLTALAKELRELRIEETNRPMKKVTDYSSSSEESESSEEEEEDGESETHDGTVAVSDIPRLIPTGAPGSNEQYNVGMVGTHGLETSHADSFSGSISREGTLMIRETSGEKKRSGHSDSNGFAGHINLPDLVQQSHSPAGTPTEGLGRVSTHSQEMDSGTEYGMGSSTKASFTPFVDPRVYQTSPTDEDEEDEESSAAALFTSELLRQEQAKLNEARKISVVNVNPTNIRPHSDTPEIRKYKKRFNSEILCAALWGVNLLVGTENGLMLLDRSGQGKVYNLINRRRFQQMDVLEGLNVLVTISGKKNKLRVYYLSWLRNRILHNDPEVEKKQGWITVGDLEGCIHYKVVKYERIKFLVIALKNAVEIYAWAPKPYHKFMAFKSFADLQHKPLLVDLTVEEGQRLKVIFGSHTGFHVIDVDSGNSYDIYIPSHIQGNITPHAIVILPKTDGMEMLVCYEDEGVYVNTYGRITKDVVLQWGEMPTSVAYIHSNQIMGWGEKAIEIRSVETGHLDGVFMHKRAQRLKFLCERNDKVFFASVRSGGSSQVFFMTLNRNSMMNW
Chain of Receptor-type tyrosine-protein kinase FLT3 (Homo sapiens), P36888 [UNDEFINED MUTATION] (P36888 whole entry, looked up, change not shown): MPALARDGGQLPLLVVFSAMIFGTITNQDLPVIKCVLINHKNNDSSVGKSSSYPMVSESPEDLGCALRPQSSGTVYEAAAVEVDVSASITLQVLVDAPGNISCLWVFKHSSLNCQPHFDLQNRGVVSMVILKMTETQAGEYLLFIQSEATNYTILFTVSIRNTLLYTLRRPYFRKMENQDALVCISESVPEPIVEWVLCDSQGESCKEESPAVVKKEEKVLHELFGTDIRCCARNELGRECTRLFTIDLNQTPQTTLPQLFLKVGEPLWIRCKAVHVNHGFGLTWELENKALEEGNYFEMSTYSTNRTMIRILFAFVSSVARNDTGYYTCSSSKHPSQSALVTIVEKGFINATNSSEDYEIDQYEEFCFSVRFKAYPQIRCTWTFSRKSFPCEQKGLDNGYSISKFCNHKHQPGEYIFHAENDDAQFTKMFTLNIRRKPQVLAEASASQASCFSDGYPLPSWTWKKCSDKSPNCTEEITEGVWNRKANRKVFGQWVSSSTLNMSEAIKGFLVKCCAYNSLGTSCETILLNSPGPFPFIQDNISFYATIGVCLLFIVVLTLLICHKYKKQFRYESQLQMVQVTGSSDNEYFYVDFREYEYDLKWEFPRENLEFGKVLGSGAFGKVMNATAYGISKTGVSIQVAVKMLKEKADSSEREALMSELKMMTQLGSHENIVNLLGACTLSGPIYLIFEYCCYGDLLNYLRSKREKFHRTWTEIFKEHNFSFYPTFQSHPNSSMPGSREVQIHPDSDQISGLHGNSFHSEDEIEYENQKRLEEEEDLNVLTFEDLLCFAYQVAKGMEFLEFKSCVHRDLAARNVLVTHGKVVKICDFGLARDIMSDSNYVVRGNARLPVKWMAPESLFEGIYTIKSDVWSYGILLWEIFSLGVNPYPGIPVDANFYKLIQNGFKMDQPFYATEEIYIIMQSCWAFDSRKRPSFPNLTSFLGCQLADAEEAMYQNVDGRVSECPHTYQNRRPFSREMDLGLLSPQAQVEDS

SMILES: O=C(NOC[C@H](O)CO)c1ccc(F)c(F)c1Nc1ccc(I)cc1F
% of control [1]: 100%

% of control [2]: 11%
SMILES: CCc1ccccc1C(=O)Nc1n[nH]c2c(C)c(F)c(C3C(C#N)=C(C)N(C)C(C)=C3C#N)cc12 [BAY-3827]

% of control [3]: 100%
SMILES: CCN(CC)CCCCNc1ncc2cc(-c3cc(OC)cc(OC)c3)c(NC(=O)NC(C)(C)C)nc2n1

SMILES: Cc1cc(F)c(C(=O)Nc2cccc(-c3nncn3C(C)C)n2)cc1-n1cnc(C2CC2)c1
% of control [4]: 70%

SMILES: COc1cc(Nc2nc(C)cc(-c3cnn4nc(OC)ccc34)n2)cc(C(F)(F)F)c1
% of control [5]: 85%

SMILES: Nc1cnc(N2CCc3cc(S(=O)(=O)Nc4c(F)cc(Cl)cc4F)cc(N4CCCC4=O)c32)nc1 [TP-020n]
% of control [6]: 78%

SMILES: O[C@H]1CC[C@H](Nc2ncc3nc(Nc4c(F)cc(F)cc4F)n([C@H]4CCOC4)c3n2)CC1
% of control [7]: 7.7%
% of control [8]: 75%
